Experiment [1] deals with T1, human p38alfa (SAPKa) enzyme (Homo sapiens, UniProt Q16539).
T1 construct: purchased University of Dundee
Put plainly: p38alpha enzymatic inhibition assay (FRET, ATF2 substrate). The format is biochemical. The conditions noted are these: 1 h pre-incubation, ATP 60 μM, ATF2 0.62 μM, 25° C., read-out: p38α IC50. Here is the method:
Enzymatic activity assay was performed in 96-well microtiter plates (Corning, catalog number # 3686) using a total volume of 50 μl of an assay buffer composed of 50 mM HEPES pH 7.5, 10 mM MgCl2, 1.75 mM Na3VO4.
Various concentrations of the test compound or vehicle controls were pre-incubated for one hour with 0.055 μg/ml of the human p38alfa (SAPKa) enzyme (obtained from University of Dundee). […] Addition of the detection reagents, streptavidin-XL665 and anti-phosphoresidue antibody coupled to Europium cryptate, caused the juxtaposition of the cryptate and the XL665 fluorophore, resulting in fluorescence energy transfer (FRET). The FRET intensity depends on the amount of bounded cryptate antibody, which is proportional to the extent of substrate phosphorylation. FRET intensity was measured using Victor 2V spectrofluorometer. Data were analyzed by non-linear regression (Hill equation) to generate a dose-response curve. The calculated IC50 value is the concentration of the test compound that caused a 50% decrease in the maximal FRET intensity.

In experiment [2] the test system is TNFα production in human monocytic cell line THP-1. Briefly: Inhibition of LPS-induced TNFα production in THP-1 cells. The conditions noted are these: LPS 10 μg/ml, 5 h, TNFα ELISA. The format is cell-based. Here is the method:
The activity of compounds in inhibiting TNFα production was measured in a cellular assay using the human monocytic cell line THP-1. For this purpose, 2×10^5 cells/well were plated in tissue-culture treated round-bottom 96-well plates in RPMI (containing 10% FCS, L-Gln 2 mM, Hepes buffer 10 mM, sodium pyruvate 1 mM, glucose 4.5 gr/L, HNaCO3 1.5 g/L and beta-mercaptoethanol 50 μM), together with compounds at the desired test concentration and LPS (Sigma, L2630) at a final 10 μg/ml concentration. Compounds were resuspended in 100% DMSO at a concentration of 1 mM and titrated thereof in 10× dilutions in medium. Controls included stimulated cells alone and stimulated cells treated with the highest concentration of compound vehicle (1% DMSO). Cells were incubated for 5 h at 37° C. in a 5% CO2 atmosphere. Cell supernatant was recovered by centrifugation and diluted 5-fold prior to testing in a standard human TNFα ELISA (RnD systems).
Data were analyzed by non-linear regression (Hill equation) to generate a dose-response curve. The calculated IC50 value is the concentration of the test compound that caused a 50% decrease in the maximal TNFα production.
For orientation: ELISA stands for enzyme-linked immunosorbent assay.

Structures are written as SMILES.

By IC50 is commonly meant the concentration that gives 50% inhibition.

T1 sequence (Q16539 whole entry): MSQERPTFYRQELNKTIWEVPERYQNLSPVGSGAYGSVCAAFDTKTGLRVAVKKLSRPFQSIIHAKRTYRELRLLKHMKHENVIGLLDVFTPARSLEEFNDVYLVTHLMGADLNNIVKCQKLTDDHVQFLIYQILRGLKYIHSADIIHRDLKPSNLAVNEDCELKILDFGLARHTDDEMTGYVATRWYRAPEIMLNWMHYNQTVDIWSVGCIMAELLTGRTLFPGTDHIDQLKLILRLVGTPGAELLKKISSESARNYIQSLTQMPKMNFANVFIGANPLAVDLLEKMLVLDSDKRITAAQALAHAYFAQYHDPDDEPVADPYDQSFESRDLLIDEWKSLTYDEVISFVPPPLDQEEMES

As for `Nc1c(C(=O)c2ccc(F)cc2F)ccnc1-c1ccccc1Cl` [Example 25, [3-Amino-2-(2-chlorophenyl)pyridin-4-yl](2,4-difluorophenyl)methanone], the half-maximal inhibitory concentration (IC50) in experiment [1] came to 251 nM; in experiment [2], 130 nM.
`Nc1c(C(=O)c2ccc(F)cc2F)cc[n+]([O-])c1-c1ccccc1Cl` [Example 26, [3-Amino-2-(2-chlorophenyl)-1-oxidopyridin-4-yl](2,4-difluorophenyl)methanone] had an IC50 in experiment [2] of 76 nM.
Same read-out and setting: the same measure for `Nc1c(C(=O)c2ccc(F)cc2F)cc[n+]([O-])c1-c1c(Cl)cccc1Cl` [Example 32, [3-Amino-2-(2,6-dichlorophenyl)-1-oxidopyridin-4-yl](2,4-difluorophenyl)methanone]: 19.4 nM.
`Cc1cccc(C)c1-c1c(N)c(C(=O)c2ccc(F)cc2F)cc[n+]1[O-]` [Example 36, [3-Amino-2-(2,6-dimethylphenyl)-1-oxidopyridin-4-yl](2,4-difluorophenyl)methanone]: the midpoint of inhibition in experiment [2], the IC50, lay at 33 nM.
Turning to `Cc1cc(O)ccc1-c1nccc(C(=O)c2ccc(F)cc2F)c1N` [Example 47, [3-Amino-2-(4-hydroxy-2-methylphenyl)pyridin-4-yl](2,4-difluorophenyl)methanone], the IC50 in experiment [1] was determined as 277 nM; in experiment [2] it was 402 nM.
In turn, `Cc1cc(O)ccc1-c1c(N)c(C(=O)c2ccc(F)cc2F)cc[n+]1[O-]` [Example 48, [3-Amino-2-(4-hydroxy-2-methylphenyl)-1-oxidopyridin-4-yl](2,4-difluorophenyl)methanone] displayed a half-inhibitory concentration (IC50) in experiment [2] of 84 nM.
With `Nc1c(C(=O)c2ccc(F)cc2F)ccnc1-c1cccc2c1OCO2` [Example 79, [3-Amino-2-(1,3-benzodioxol-4-yl)pyridin-4-yl](2,4-difluorophenyl)methanone], the values for the IC50 in experiment [1] and in experiment [2] were 103 nM and 53 nM, respectively.
On the same counts, the results for `Cc1ccccc1-c1c(N)c(C(=O)c2ccccc2Cl)cc[n+]1[O-]` [Example 82, [3-Amino-2-(2-methylphenyl)-1-oxidopyridin-4-yl](2-chlorophenyl)methanone] are 31 nM and 118 nM.
As to `Cc1cccc(C(=O)c2cc[n+]([O-])c(-c3ccccc3C)c2N)c1` [Example 92, [3-Amino-2-(2-methylphenyl)-1-oxidopyridin-4-yl](3-methylphenyl)methanone], the values for the IC50 in experiment [1] and in experiment [2] were 34 nM and 54 nM, respectively.
Consider `Cc1cccc(C(=O)c2cc[n+]([O-])c(-c3c(F)cccc3F)c2N)c1` [Example 98, [3-Amino-2-(2,6-difluorophenyl)-1-oxidopyridin-4-yl](3-methylphenyl)methanone], for which the IC50 in experiment [1] worked out at 20 nM; in experiment [2], 48 nM.
Taken in the same sequence, the figures for `Nc1c(C(=O)c2cccc(F)c2)ccnc1-c1cccc2c1OCO2` [Example 109, [3-Amino-2-(1,3-benzodioxol-4-yl)pyridin-4-yl](3-fluorophenyl)methanone] were 359 nM and 349 nM.
In the case of `COc1ccccc1C(=O)c1cc[n+]([O-])c(-c2c(F)cccc2F)c1N` [Example 118, [3-Amino-2-(2,6-difluorophenyl)-1-oxidopyridin-4-yl](2-methoxyphenyl)methanone], the IC50 in experiment [1] amounted to 86 nM; in experiment [2], 140 nM.
Turning to `COc1ccccc1C(=O)c1cc[n+]([O-])c(-c2c(C)cccc2C)c1N` [Example 120, [3-Amino-2-(2,6-dimethylphenyl)-1-oxidopyridin-4-yl](2-methoxyphenyl)metha-none], the values for the concentration for half-maximal inhibition (IC50) in experiment [1] and in experiment [2] were 146 nM and 98 nM, respectively.

The values above are taken from patent publication US20110098298A1, “New Pyridin-3-Amine Derivatives” (priority 2006, published 2011).
